Results on six compounds are retold here after ChEMBL document CHEMBL1146115, “Synthesis and evaluation of novel heterocyclic inhibitors of GSK-3” (Bioorg Med Chem Lett, 2006).

SMILES strings stand for the structures.

The target of the experiment is Glycogen synthase kinase-3 (Homo sapiens, UniProt P49840+P49841). The experiment in a line: Inhibition of GSK3. It is filed as protein assay.
With `COc1cccc(-c2cn(C)c3c(N/N=C/c4ccncc4)ncnc23)c1`, the “Log IC50” value is given as -6.3. On to `COc1cccc(-n2cnc3c(N/N=C/c4ccncc4)ncnc32)c1` [GW813360X], for which the “Log IC50” value is listed as -6.2. With `COc1cccc(-n2ncc3c(N/N=C/c4ccncc4)ncnc32)c1` [GW784752X] the figure was -8.2. In the case of `COc1cccc(-n2ccc3c(N/N=C/c4ccncc4)ncnc32)c1`, the “Log IC50” value was -7.5. For the compound `COc1cccc(-c2[nH]nc3c(N/N=C/c4ccncc4)ncnc23)c1`, the “Log IC50” value is listed as -8.3. On to `COc1cccc(-c2c[nH]c3c(N/N=C/c4ccncc4)ncnc23)c1` [GW814408X], for which the “Log IC50” value was -8.3.
